We go through one compound from patent publication US6596712B2, “Treatment of carcinomas using squalamine in combination with other anti-cancer agents or modalities” (Genaera Corporation, priority 1996, dated 2003).

Series [1] relates to bovine retinal endothelial cells not treated with VEGF. Description: Growth of endothelial cells not treated with VEGF. In kind it is cell-based. As to conditions: 24 and 48 hours; up to 30 μg/ml. On the procedure:
In conducting this in vitro analysis, the following cell lines were tested: (a) bovine retinal endothelial cells; (b) 9L and C6 rat glioma cells; (c) human H80 glioma cells; and (d) VX2 rabbit carcinoma cells (the same type as the tumors implanted in the rabbit corneal micropocket assay test described above). The endothelial mitogen which was used in this analysis was VEGF at a concentration of 20 ng/ml.
The cells were allowed to attach overnight to tissue culture plates containing an optimized growth media. Following attachment, the cells were exposed to solvent only or 5 to increasing concentrations of squalamine (0, 10, 20, 30, 60, and 90 μg squalamine/ml). Cell growth was counted daily for three days using a Coulter Counter. A total of 10,000 cells per well were plated and each experimental concentration was tested in quadruplicate. The results were then averaged. The bovine retinal endothelial cells were grown and treated in an identical manner to the other cell lines, […]
Percentage endothelial cell growth inhibition (%I) was determined by the following equation: [formula]

Series [2] relates to human MX-1 breast cancer line. The class given is in vivo. As to the method:
These documents each are entirely incorporated herein by reference. Squalamine was examined as adjunctive therapy following a single 200 mg/kg dose of cyclophosphamide. The cyclophosphamide was injected on day 14 following implantation of the tumor, at a time when the tumors measured 65-125 μl. […] The animals were then randomized to three treatment arms (each n=27): vehicle dosing only (Intralipid); squalamine given 10 mg/kg/day in Intralipid; and squalamine given 20 mg/kg/day in Intralipid for five days a week. Animals whose tumors exceeded 2 grams at any time during the experiment were euthanized. The experiment was continued for 90 days after initiating squalamine treatment to ensure that only mice experiencing long-term cures were still alive.

The target of a further series is NHE1 (Homo sapiens, UniProt P19634). Description: NHE1 activity in unstimulated melanoma cells. The class given is cell-based. Details: endogenous in cells. As to the method: The effect of squalamine on NHE activity was measured to determine which isoforms of NHE were affected by squalamine. NHE activity can be measured under various different cellular conditions. Acid loading a cell activates all of the antiporters and permits measurement of NHE. NHE activity also can be measured after growth factor stimulation of the cell. Additionally, the NHE activity can be measured when the cell is in an unstimulated state, because the antiporters, even if unstimulated, continue to function at a slow, but non-zero rate. In each of these cellular conditions, NHE activity usually is measured in the absence of bicarbonate.
Chain of NHE1 (P19634 whole entry, species assumed, canonical isoform): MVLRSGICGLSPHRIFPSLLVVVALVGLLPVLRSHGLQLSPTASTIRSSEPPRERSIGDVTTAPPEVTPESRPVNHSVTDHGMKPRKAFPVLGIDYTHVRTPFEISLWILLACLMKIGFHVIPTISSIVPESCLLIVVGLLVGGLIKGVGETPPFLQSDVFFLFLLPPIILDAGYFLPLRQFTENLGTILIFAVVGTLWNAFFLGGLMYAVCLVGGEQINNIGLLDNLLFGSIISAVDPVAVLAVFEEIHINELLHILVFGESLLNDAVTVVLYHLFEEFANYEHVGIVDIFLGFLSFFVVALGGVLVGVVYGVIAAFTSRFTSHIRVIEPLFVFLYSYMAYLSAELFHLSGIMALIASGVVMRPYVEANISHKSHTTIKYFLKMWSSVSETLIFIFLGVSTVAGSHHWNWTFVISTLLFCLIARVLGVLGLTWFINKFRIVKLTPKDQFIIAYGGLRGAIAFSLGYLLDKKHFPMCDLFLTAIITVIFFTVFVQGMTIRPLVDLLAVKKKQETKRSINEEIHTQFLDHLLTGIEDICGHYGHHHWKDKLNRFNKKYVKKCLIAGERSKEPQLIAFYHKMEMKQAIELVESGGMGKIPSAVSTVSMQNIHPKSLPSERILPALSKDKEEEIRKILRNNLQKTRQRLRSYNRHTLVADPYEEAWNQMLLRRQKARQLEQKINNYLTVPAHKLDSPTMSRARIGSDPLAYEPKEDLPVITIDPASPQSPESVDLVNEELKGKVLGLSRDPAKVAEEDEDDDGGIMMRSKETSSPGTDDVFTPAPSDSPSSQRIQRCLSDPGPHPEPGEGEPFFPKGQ
NHE3 in particular is relatively resistant to inhibition by the amilorides.

In series [3] the test system is Human androgen dependent LNCaP cells. Description: LNCaP xenograft with hormonal ablation (Example 7). The class given is in vivo, athymic mice. On the procedure:
Human androgen dependent LNCaP cells (2×10^6 cells/flank in both flanks) were implanted subcutaneously with an equal volume of Matrigel™ in forty athymic mice. These animals were followed with periodic bleedings until serum human PSA levels exceeded 100 ng/mL and tumor volume measurements exceeded 1000 mm^3 (approximately six weeks after implantation). All animals were then surgically castrated and were randomized into five treatment groups with 8-10 animals per group. One group of animals was not treated further (controls), while a second group immediately began daily intraperitoneal injection of 20 mg/kg/day squalamine (five days per week with a two day respite). A third group of animals began to receive squalamine (20 mg/kg/day squalamine, five days per week with a two day respite) when their serum human PSA levels reached values of 4-10 ng/mL. A fourth group of mice began squalamine treatment (20 mg/kg/day squalamine, five days per week with a two day respite)when serum human PSA values reached 20-40 ng/mL, and a fifth group began squalamine treatment when serum human PSA levels reached 100 ng/mL.
Similarly, the serum human PSA levels fell to undetectable levels with a nadir at two weeks after castration, but by week three the serum human PSA levels began to rise in all control animals. […] For animals treated with squalamine concomitant with the fall in human PSA after castration, six of ten animals were treated for 6-10 weeks. Three mice in this group never experienced a post-orchiectomy PSA nadir, and one mouse experienced an early death of unknown etiology. The remaining six animals in this group experienced a post-orchiectomy PSA nadir of less than 1 ng/mL and maintained this negligible level for the duration of squalamine therapy.
Tissue histology was carried out on the tumor masses (or the site of tumor implantation, in the instance of the animals which underwent successful squalamine treatment) to examine the distribution of integrins in these tissues. […] Thus, part of the mechanism by which squalamine successfully alters LNCaP tumor growth is by interfering with cellular integrin expression that is associated with tumor aggressiveness.

Series [4] can be described thus: Pharmacokinetic study, half-life. As to conditions: in vivo. As to the method: A pharmacokinetic study of squalamine was performed to ascertain the residence time of squalamine in the body. FIGS. 6a to 6c illustrate the test results where squalamine was administered subcutaneously (50 mg/kg, FIG. 6a), intraperitoneally (dose 240 μg; 10 mg/kg, FIG. 6b), and intravenously (10 mg/kg, FIG. 6c).

The test system of series [5] is transfected PS 120 fibroblast cells. Description: LDH leakage from transfected cells. In kind it is cell-based. As to conditions: during NHE inhibiting effect. As to the method:
In the transfected cells used in this test, it took at least 30 minutes before the NHE3 inhibition effect induced by squalamine was observed.
(In general: LDH leaks from cells whose membrane has failed.)

For series [6], the system named is human brain capillary endothelial cells. Description: Growth factor stimulated growth of human brain capillary endothelial cells. In kind it is cell-based. From the text: Thus, as the tumor puts out a variety of different growth factors, squalamine has an inhibitory effect on several.
Series [7] deals with T1, rabbit NHE3 with 76 C-terminal amino acids removed (Oryctolagus cuniculus, UniProt P26432).
T1 construct: expressed in transfected cells
T1 sequence (P26432 30-756): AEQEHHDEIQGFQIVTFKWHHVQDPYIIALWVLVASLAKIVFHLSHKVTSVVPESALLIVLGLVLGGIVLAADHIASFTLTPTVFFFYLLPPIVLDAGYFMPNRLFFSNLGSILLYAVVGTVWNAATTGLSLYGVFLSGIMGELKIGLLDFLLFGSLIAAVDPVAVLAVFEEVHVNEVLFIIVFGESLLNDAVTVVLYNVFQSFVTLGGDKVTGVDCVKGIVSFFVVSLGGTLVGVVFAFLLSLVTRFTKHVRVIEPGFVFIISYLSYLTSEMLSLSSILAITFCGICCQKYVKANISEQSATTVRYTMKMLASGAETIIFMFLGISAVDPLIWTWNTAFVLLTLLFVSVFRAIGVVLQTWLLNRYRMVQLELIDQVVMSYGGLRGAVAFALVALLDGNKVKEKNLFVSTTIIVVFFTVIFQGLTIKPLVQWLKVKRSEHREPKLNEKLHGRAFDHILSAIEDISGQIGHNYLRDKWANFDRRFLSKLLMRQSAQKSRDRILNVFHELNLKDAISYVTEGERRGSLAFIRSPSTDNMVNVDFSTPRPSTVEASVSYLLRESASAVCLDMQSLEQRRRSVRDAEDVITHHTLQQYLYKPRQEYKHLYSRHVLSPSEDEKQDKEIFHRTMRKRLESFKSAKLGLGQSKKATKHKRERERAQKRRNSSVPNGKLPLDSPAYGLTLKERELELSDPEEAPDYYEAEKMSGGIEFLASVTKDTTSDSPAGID
Description: Rabbit NHE3 with the 76 C-terminal amino acids removed. In kind it is cell-based. An excerpt:
This NHE3 inhibiting activity of squalamine has been mapped to the 76 C-terminal amino acids on the NHE3 molecule. […] Thus, the 76 C-terminal amino acids of NHE3 are the site of inhibition by squalamine.

For the next series, the system named is rabbit corneas. Description: Inflammation in rabbit cornea without angiogenic stimulus. As to conditions: pellets with 2%, 10% and 20% squalamine by weight. The class given is in vivo. On the procedure:
In the rabbit corneal micropocket assay test, if the rabbit cornea becomes inflamed, this inflammation can lead to the formation of new blood vessels in the cornea. Such inflammation would skew the test results. Therefore, tests were conducted to determine whether squalamine, in and of itself, was responsible for any inflammatory response in the cornea. Several non-bioresorbable ethylene/vinyl acetate copolymer pellets were loaded with different concentrations of squalamine, namely, 2%, 10%, and 20% squalamine, by weight.

Setting [8] is: tissue histology after successful squalamine treatment.

In general, half-life refers to the time needed for the level to fall by half in the phase considered. `CC(C)[C@@H](CC[C@@H](C)[C@H]1CC[C@H]2[C@@H]3[C@H](O)C[C@H]4C[C@@H](NCCCNCCCCN)CC[C@]4(C)[C@H]3CC[C@]12C)OS(=O)(=O)O` [Squalamine, squalamine]: the “cell proliferation by endothelial cells not treated with VEGF” value in series [1] is given as “statistically unaffected”. In addition, the “rate of progression of the breast tumors” value in [2] (squalamine 10 mg/kg/day after single 200 mg/kg cyclophosphamide, all times examined) was “significant (P<0.01) inhibition in the rate of progression of the breast tumors”. Besides, the “progression of the breast tumors” value in series [2] (squalamine 20 mg/kg/day after single 200 mg/kg cyclophosphamide, only at 30 days post-initiation) is on record as “significant (P<0.05) delay in progression of the breast tumors”. Moreover, the “long-term cure rate vs cyclophosphamide alone” value in series [2] (squalamine 20 mg/kg/day for five weeks after cyclophosphamide, 90 days) was “doubled the long-term cure rate”. In addition, the “tolerability of high dose” value in series [2] (squalamine 20 mg/kg/day, discontinued after five weeks) was “animal weight loss and potential toxicity concerns”. In addition, the “NHE1 activity in unstimulated melanoma cells” value on NHE1 is recorded as “substantially down regulates the activity of the antiporter”. Also, the “post-orchiectomy PSA nadir” value in series [3] (20 mg/kg/day i.p. five days per week, 6-10 weeks from castration, six animals) was “less than 1 ng/mL”. Besides, the tumor masses result in series [3] (20 mg/kg/day i.p. from castration) is “eventually disappeared in all six animals”. In series [3] (setting [8]), the “expression of the integrin α6β4” value was “increase”. Further, the “expression of the integrin αvβ3” value in series [3] (setting [8]) was “reduction in the expression”. Also, the half-life was 172 min in series [4] (ip, intraperitoneally, dose 240 μg, 10 mg/kg); 35 min in series [4] (iv, intravenously, 10 mg/kg); 336 min in series [4] (sc, subcutaneously, 50 mg/kg). For the same compound, in [5], the “LDH leakage from the cell” value was “absence of lactase dehydrogenase (LDH) leakage”. Also, in [6], the “growth stimulation induced by b-FGF, PDGFbb, scatter factor, conditioned tumor media, human brain cyst fluid” value is on record as “interfere with growth stimulation”. The “effect on activity of NHE3 lacking the 76 C-terminal amino acids” value in [7] is “virtually no effect”. Further, in the series on rabbit corneas, the “inflammation in the cornea” value is “did not induce inflammation”.
